Source: patent US7910723B2, “IG20 splice variants therapeutics for cancer” (The Board of Trustees of the University of Illinois, priority 2006, dated 2011)

Tests used:
Type in all cases: cell-based
DR4 = assay: Association of exogenous MADD with DR4 in HEK293 cells (immunoprecipitation)
Experimental: (A) Phosphorylation status of MADD could influence its binding to DR4. HEK293 cells were transfected with wtMADD or MADD mutants. 36 h after transfection, the cells were harvested for immunoprecipitation using an anti-DR4 antibody followed by immunoblotting using an anti-YFP antibody to detect exogenous MADD. The membrane was reprobed with an anti-DR4 antibody to show the protein loading. (B) PI3K can influence the association of exogenous MADD with DR4. HEK293 cells were transfected with wtMADD. Twenty four hours after transfection, the cells were serum starved for 20 h. Further, they were treated with LY (10 μM) for 1 h, IGF-1 (150 ng/ml) for 20 minutes. Immunoprecipitation using an anti-DR4 antibody was followed by immunoblotting using anti-YFP or anti-DR4 antibody. (C) Akt can influence exogenous MADD association with DR4. HEK293 cells were co-transfected with wtMADD along with DN-Akt or the empty vector pcDNA3.1 (pcDNA). Thirty six hours after transfection, the cells were harvested for immunoprecipitation using anti-DR4 antibody followed by immunoblotting with an anti-YFP or an anti-DR4 antibody. (D) PI3K can influence the association of endogenous MADD with DR4. HeLa cells were serum starved for 20 h, then treated with LY (10 μM) for 1 h, IGF-1 (150 ng/ml) for 20 minutes. Immunoprecipitation using an anti-DR4 antibody was followed by immunoblotting with an anti-MADD or an anti-DR4 antibody. (E) Akt can influence the association of endogenous MADD with DR4. HeLa cells were transfected with DN-Akt or pcDNA. Thirty six hours after transfection, the cells were collected for immunoprecipitation using an anti-DR4 antibody followed by immunoblotting with an anti-MADD antibody.
MADD can bind to DR4 and thereby block the activation of the extrinsic apoptotic pathway. […] Stimulation of PI3K by IGF-1 increased, while inhibition by LY reduced, the association between wtMADD and DR4 (FIG. 15B). […] This interaction was reduced in the presence of LY (FIG. 15D) or DN-Akt (FIG. 15E).
Immunoprecipitation. Immunoprecipitations were performed using standard procedures. The samples were precleared with 10% (vol/vol) Protein-A agarose (Roche) for 1 h on a rocking platform. Specific antibodies were added and rocked for 1 h. Immunoprecipitates were captured by incubating with 10% (vol/vol) Protein-A agarose for an hour. The agarose beads were spun down and washed three times with NET/NP40 buffer (150 mM NaCl, 2 mM EDTA, 50 mM Tris-HCl pH 7.5, 0.1% NP-40). The antigens were released and denatured by adding SDS sample buffer. Immunoblots were prepared and analysed as described above.

MADD [1] = assay: Phosphorylation of exogenous wtMADD in HEK293 cells (anti-phospho antibodies); conditions: HEK293 transfected with wtMADD; LY 10 μM 1 h, IGF-1 150 ng/ml 20 minutes
Experimental: (A) In vitro phosphorylation of rMADD by Akt. GST-wtMADD or -MADD mutants were expressed in bacteria, purified, and then incubated with rAkt and γ[^32P] ATP. After 1 h incubation at 30° C., the products were resolved on SDS-PAGE and ^32P-labeled proteins were visualized by autoradiography. (B) MADD is labeled by [^32P]orthophosphate in vivo. HEK293 cells were transfected with wtMADD or MADD mutant constructs. Twenty-four hours after transfection cells were incubated with 0.3 mCi/ml [32P]orthophosphate for 6 h. MADD was immunoprecipitated with an anti-YFP antibody. The precipitated MADD was separated by SDS-PAGE, transferred to a nitrocellulose membrane, and subjected to autoradiography. Loaded MADD was visualized by staining the same membrane with an anti-YFP antibody. (C) HEK293 cells were transfected with cDNAs for wtMADD or MADD mutants and. 36 h later the cells were harvested for immunoblotting using the anti-phospho-S-70, -T-173 or -T-1041 antibodies. An anti-YFP antibody was used to detect exogenous MADD. (D) HEK293 cells were transfected with wtMADD and 24 hours later cells were serum starved for 20 h. Subsequently, they were treated with LY (10 μM) for 1 h and/or IGF-1 (150 ng/ml) for 20 minutes. The cell lysates were immunoblotted and probed with anti phospho-specific antibodies or an anti-YFP antibody. […]

MADD [2] = assay: Phosphorylation of endogenous MADD in HeLa cells (anti-phospho antibodies); conditions: LY 10 μM 1 h, IGF-1 150 ng/ml 20 minutes
Akt and MADD = assay: TRAIL treatment of HeLa cells: Akt and MADD phosphorylation, caspase-8 activation (immunoblot); conditions: TRAIL 50 ng/ml
Experimental: (A) TRAIL treatment reduces the levels of Akt and MADD phosphorylation, and leads to caspase-8 activation. Hela cells were treated with TRAIL (50 ng/ml). The phosphorylation level of Akt was analyzed by immunoblotting using an anti-phospho Akt antibody. The phosphorylation levels of MADD was analyzed by immunoblotting using the anti-phospho T1041 antibody. Caspase-8 activation was analyzed by immunoblotting using an anti-caspase-8 antibody. (B) TRAIL induces FADD-procaspase-8 binding depending upon MADD phosphorylation status. HeLa cells were transfected either with caAkt or pcDNA3.1 empty vector. Cells were treated with TRAIL for 1 h. The MADD phosphorylation was analyzed by immunoblotting using the anti-phospho T1041 antibody. The association of procaspase-8 and FADD was analyzed by immunoprecipitation using an anti-FADD antibody followed by immunoblotting using an anti-caspase-8 antibody. […] 24 h later cells were treated with TRAIL (50 ng/ml) for 4 hours and caspase-8 activity was analyzed. *p<0.05 vs TRAIL+caAkt. […] The localizations of phosphorylated and nonphosphorylated forms of MADD in the membrane and cytosolic fractions were analyzed by immunoblotting using the anti-phospho T1041 antibody. […] The Bax distribution in cytoplasm and HM was analyzed by immunoblotting using an anti-Bax antibody. […] The distributions of Bax in cytoplasm and HM were analyzed as described for (E). […]

Substance | Association of exogenous MADD with DR4 (DR4) | S70, T173 and T1041 phosphorylation levels of MADD (MADD [1]) | Phosphorylation of endogenous MADD (MADD [2]) | Caspase-8 activation (Akt and MADD) | Levels of phosphorylation of Akt and MADD (Akt and MADD)
insulin-like growth factor-1 [IGF-1] | increased | increased | phosphorylated at all three sites |  | 
tumor necrosis factor-related apoptosis-inducing ligand [TRAIL] |  |  |  | concomitant activation of caspase-8 | reduced
